Source: ChEMBL document CHEMBL1208670, “Synthesis, characterization and antimicrobial studies of 2-(4-methoxy-phenyl)-5-methyl-4-(2-arylsulfanyl-ethyl)-2,4-dihydro-[1,2,4] triazolo-3-ones and their corresponding sulfones” (2010)
Values after ≈ are worked out from the molar mass of the structure shown.

Experiments:
Format in all cases: functional
Staphylococcus aureus = test: Antibacterial activity against Staphylococcus aureus by twofold serial dilution method
Escherichia coli = test: Antibacterial activity against Escherichia coli by twofold serial dilution method
[1] = tested on: Staphylococcus epidermidis; test: Antibacterial activity against Staphylococcus epidermidis by twofold serial dilution method
Pseudomonas aeruginosa = test: Antibacterial activity against Pseudomonas aeruginosa by twofold serial dilution method
Bacillus subtilis = test: Antibacterial activity against Bacillus subtilis by twofold serial dilution method
Candida albicans = test: Antifungal activity against Candida albicans by twofold serial dilution method
Saccharomyces cerevisiae = test: Antifungal activity against Saccharomyces cerevisiae by twofold serial dilution method
Aspergillus niger = test: Antifungal activity against Aspergillus niger by twofold serial dilution method
Aspergillus flavus = test: Antifungal activity against Aspergillus flavus by twofold serial dilution method
Rhizopus arrhizus = test: Antifungal activity against Rhizopus oryzae by twofold serial dilution method

Row | SMILES | MIC (Staphylococcus aureus) [µg/mL] | MIC (Escherichia coli) [µg/mL] | MIC [1] [µg/mL] | MIC (Pseudomonas aeruginosa) [µg/mL] | MIC (Bacillus subtilis) [µg/mL] | MIC (Candida albicans) [µg/mL] | MIC (Saccharomyces cerevisiae) [µg/mL] | MIC (Aspergillus niger) [µg/mL] | MIC (Aspergillus flavus) [µg/mL] | MIC (Rhizopus arrhizus) [µg/mL]
1 | CN[C@@H]1[C@H](O[C@H]2[C@H](O[C@H]3[C@H](O)[C@@H](O)[C@H](N=C(N)N)[C@@H](O)[C@@H]3N=C(N)N)O[C@@H](C)[C@]2(O)C=O)O[C@@H](CO)[C@H](O)[C@H]1O [STREPTOMYCIN] | 1.56 (≈ 2.68 µM) | 3.12 (≈ 5.37 µM) | 1.56 (≈ 2.69 µM) | 3.12 (≈ 5.37 µM) | 6.25 (≈ 10.7 µM) | – | – | – | – | –
2 | COc1ccc(-n2nc(C)n(CCSc3cccc(C(F)(F)F)c3)c2=O)cc1 | 9.75 (≈ 23.8 µM) | 9.75 (≈ 23.8 µM) | 150 (≈ 366 µM) | 75 (≈ 183 µM) | 150 (≈ 366 µM) | 150 (≈ 366 µM) | 150 (≈ 366 µM) | 150 (≈ 366 µM) | 150 (≈ 366 µM) | 18.8 (≈ 45.8 µM)
3 | COc1ccc(-n2nc(C)n(CCS(=O)(=O)c3ccccc3F)c2=O)cc1 | 37.5 (≈ 95.8 µM) | 150 (≈ 383 µM) | 75 (≈ 192 µM) | 37.5 (≈ 95.8 µM) | 150 (≈ 383 µM) | 150 (≈ 383 µM) | 150 (≈ 383 µM) | 37.5 (≈ 95.8 µM) | 75 (≈ 192 µM) | 18.8 (≈ 47.9 µM)
4 | COc1ccc(-n2nc(C)n(CCSc3ccccc3)c2=O)cc1 | 75 (≈ 220 µM) | 37.5 (≈ 110 µM) | 37.5 (≈ 110 µM) | 75 (≈ 220 µM) | 75 (≈ 220 µM) | 150 (≈ 439 µM) | 150 (≈ 439 µM) | 37.5 (≈ 110 µM) | 75 (≈ 220 µM) | 75 (≈ 220 µM)
5 | COc1ccc(-n2nc(C)n(CCSc3cccc(F)c3)c2=O)cc1 | 37.5 (≈ 104 µM) | 150 (≈ 417 µM) | 75 (≈ 209 µM) | 37.5 (≈ 104 µM) | 150 (≈ 417 µM) | 150 (≈ 417 µM) | 150 (≈ 417 µM) | 150 (≈ 417 µM) | 150 (≈ 417 µM) | 37.5 (≈ 104 µM)
6 | COc1ccc(-n2nc(C)n(CCSc3nnc(-c4ccc(Cl)cc4)o3)c2=O)cc1 | 75 (≈ 169 µM) | 150 (≈ 338 µM) | 150 (≈ 338 µM) | 150 (≈ 338 µM) | 150 (≈ 338 µM) | 150 (≈ 338 µM) | 150 (≈ 338 µM) | 150 (≈ 338 µM) | 150 (≈ 338 µM) | 150 (≈ 338 µM)
7 | COc1ccc(-n2nc(C)n(CCS(=O)(=O)c3ccc(Br)cc3)c2=O)cc1 | 9.38 (≈ 20.7 µM) | 150 (≈ 332 µM) | 150 (≈ 332 µM) | 150 (≈ 332 µM) | 75 (≈ 166 µM) | 150 (≈ 332 µM) | 150 (≈ 332 µM) | 37.5 (≈ 82.9 µM) | 75 (≈ 166 µM) | 37.5 (≈ 82.9 µM)
8 | COc1ccc(-n2nc(C)n(CCS(=O)(=O)c3ccc(F)cc3)c2=O)cc1 | 75 (≈ 192 µM) | 37.5 (≈ 95.8 µM) | 37.5 (≈ 95.8 µM) | 75 (≈ 192 µM) | 75 (≈ 192 µM) | 150 (≈ 383 µM) | 150 (≈ 383 µM) | 37.5 (≈ 95.8 µM) | 75 (≈ 192 µM) | 75 (≈ 192 µM)
9 | COc1ccc(-n2nc(C)n(CCS(=O)(=O)c3cccc(F)c3)c2=O)cc1 | 18.8 (≈ 47.9 µM) | 9.38 (≈ 24 µM) | 37.5 (≈ 95.8 µM) | 150 (≈ 383 µM) | 75 (≈ 192 µM) | 150 (≈ 383 µM) | 150 (≈ 383 µM) | 37.5 (≈ 95.8 µM) | 75 (≈ 192 µM) | 37.5 (≈ 95.8 µM)
10 | COc1ccc(-n2nc(C)n(CCS(=O)(=O)c3ccccc3)c2=O)cc1 | 37.5 (≈ 100 µM) | 150 (≈ 402 µM) | 75 (≈ 201 µM) | 75 (≈ 201 µM) | 150 (≈ 402 µM) | 150 (≈ 402 µM) | 150 (≈ 402 µM) | 150 (≈ 402 µM) | 150 (≈ 402 µM) | 150 (≈ 402 µM)
11 | COc1ccc(-n2nc(C)n(CCSc3ccc(N)cc3)c2=O)cc1 | 75 (≈ 210 µM) | 150 (≈ 421 µM) | 75 (≈ 210 µM) | 150 (≈ 421 µM) | 75 (≈ 210 µM) | 150 (≈ 421 µM) | 150 (≈ 421 µM) | 37.5 (≈ 105 µM) | 75 (≈ 210 µM) | 37.5 (≈ 105 µM)
12 | COc1ccc(-n2nc(C)n(CCS(=O)(=O)c3cccc(C(F)(F)F)c3)c2=O)cc1 | 18.8 (≈ 42.5 µM) | 37.5 (≈ 85 µM) | 75 (≈ 170 µM) | 18.8 (≈ 42.5 µM) | 37.5 (≈ 85 µM) | 150 (≈ 340 µM) | 150 (≈ 340 µM) | 37.5 (≈ 85 µM) | 75 (≈ 170 µM) | 75 (≈ 170 µM)
13 | COc1ccc(-n2nc(C)n(CCSc3ccc(F)cc3)c2=O)cc1 | 75 (≈ 209 µM) | 150 (≈ 417 µM) | 75 (≈ 209 µM) | 75 (≈ 209 µM) | 150 (≈ 417 µM) | 150 (≈ 417 µM) | 150 (≈ 417 µM) | 150 (≈ 417 µM) | 150 (≈ 417 µM) | 150 (≈ 417 µM)
14 | COc1ccc(-n2nc(C)n(CCSc3ccccc3F)c2=O)cc1 | 9.75 (≈ 27.1 µM) | 75 (≈ 209 µM) | 150 (≈ 417 µM) | 37.5 (≈ 104 µM) | 37.5 (≈ 104 µM) | 37.5 (≈ 104 µM) | 150 (≈ 417 µM) | 150 (≈ 417 µM) | 150 (≈ 417 µM) | 9.75 (≈ 27.1 µM)
15 | COc1ccc(-n2nc(C)n(CCSc3ccc(Br)cc3)c2=O)cc1 | 150 (≈ 357 µM) | 150 (≈ 357 µM) | 150 (≈ 357 µM) | 75 (≈ 178 µM) | 75 (≈ 178 µM) | 150 (≈ 357 µM) | 150 (≈ 357 µM) | 75 (≈ 178 µM) | 75 (≈ 178 µM) | 75 (≈ 178 µM)
16 | COc1ccc(-n2nc(C)n(CCSc3cccc(OC)c3)c2=O)cc1 | 75 (≈ 202 µM) | 18.8 (≈ 50.5 µM) | 150 (≈ 404 µM) | 75 (≈ 202 µM) | 18.8 (≈ 50.5 µM) | 150 (≈ 404 µM) | 150 (≈ 404 µM) | 37.5 (≈ 101 µM) | 75 (≈ 202 µM) | 37.5 (≈ 101 µM)
17 | CC1(C)S[C@@H]2[C@H](NC(=O)Cc3ccccc3)C(=O)N2[C@H]1C(=O)O [PENICILLIN G] | 6.25 (≈ 18.7 µM) | 7.81 (≈ 23.4 µM) | 3.12 (≈ 9.35 µM) | 12.5 (≈ 37.4 µM) | 1.53 (≈ 4.56 µM) | – | – | – | – | –
18 | C[C@@H]1[C@H](O)[C@@H](C)/C=C/C=C/C=C/C=C/C=C/C=C/C=C/[C@H](O[C@@H]2O[C@H](C)[C@@H](O)[C@H](N)[C@@H]2O)C[C@@H]2O[C@](O)(C[C@@H](O)C[C@@H](O)[C@H](O)CC[C@@H](O)C[C@@H](O)CC(=O)O[C@H]1C)C[C@H](O)[C@H]2C(=O)O [AMPHOTERICIN B] | – | – | – | – | – | 6.25 (≈ 6.76 µM) | 6.25 (≈ 6.76 µM) | 1.56 (≈ 1.69 µM) | 6.25 (≈ 6.76 µM) | 1.56 (≈ 1.69 µM)
